Reference: PubChem BioAssay (NCI)
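Assay format: 96-well plates, 48-hour exposure. GI50: concentration for 50% inhibition of growth. TGI marks complete inhibition of growth.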

Experiments:
Assay in all cases: NCI-60 cell line screen, 48 h
CAKI-1 renal = tested on: CAKI-1 renal
EKVX NSCLC = tested on: EKVX NSCLC
IGROV1 ovarian = tested on: IGROV1 ovarian
M14 melanoma = tested on: M14 melanoma
NCI-H226 lung = tested on: NCI-H226 lung
OVCAR-3 ovarian = tested on: OVCAR-3 ovarian
OVCAR-4 ovarian = tested on: OVCAR-4 ovarian
RPMI-8226 leukemia = tested on: RPMI-8226 leukemia
RXF 393 renal = tested on: RXF 393 renal
SN12C renal = tested on: SN12C renal

Compound	GI50 (CAKI-1 renal)	TGI (CAKI-1 renal)	GI50 (EKVX NSCLC)	TGI (EKVX NSCLC)	GI50 (IGROV1 ovarian)	TGI (IGROV1 ovarian)	GI50 (M14 melanoma)	TGI (M14 melanoma)	GI50 (NCI-H226 lung)	TGI (NCI-H226 lung)	GI50 (OVCAR-3 ovarian)	TGI (OVCAR-3 ovarian)	GI50 (OVCAR-4 ovarian)	TGI (OVCAR-4 ovarian)	GI50 (RPMI-8226 leukemia)	TGI (RPMI-8226 leukemia)	GI50 (RXF 393 renal)	TGI (RXF 393 renal)	GI50 (SN12C renal)	TGI (SN12C renal)
CCOC(=O)CC1(O)C=CC(=O)C=C1	2.62 µg/mL	4.71 µg/mL	3.24 µg/mL	6.16 µg/mL	0.885 µg/mL	2.19 µg/mL	1.67 µg/mL	4.35 µg/mL	4.79 µg/mL	13 µg/mL	0.738 µg/mL	2.16 µg/mL	2.21 µg/mL	4.44 µg/mL	1.24 µg/mL	28.4 µg/mL	0.666 µg/mL	1.75 µg/mL	2.46 µg/mL	4.6 µg/mL
CS(=O)(=O)CCNCc1ccc(-c2ccc3ncnc(Nc4ccc(OCc5cccc(C(F)(F)F)c5)cc4)c3c2)o1	5.57 µM	> 19.8 µM	6.03 µM	> 23.3 µM	5.46 µM	> 17.5 µM	6.11 µM	13.9 µM	> 16.3 µM	> 25 µM	5.15 µM	11.2 µM	8.68 µM	> 25 µM	5.7 µM	16.5 µM	5.28 µM	13.6 µM	7.81 µM	> 19.1 µM
Cn1c(CCC#N)nc2ccc(Br)cc2c1=O		> 100 µM		> 100 µM		> 100 µM		> 100 µM		> 100 µM				> 100 µM		> 100 µM		> 100 µM		> 100 µM
CCOC(=O)/N=C(\N)SCc1ccccc1		> 100 µM		> 100 µM		> 100 µM		> 100 µM		> 100 µM				> 100 µM		> 100 µM		> 100 µM		> 100 µM
CCCNCc1nc2ccc(Br)cc2c(=O)n1CCC				33.3 µM		29.7 µM		27.4 µM		26 µM		32.5 µM		27.7 µM		> 100 µM		29.1 µM		26.7 µM
C=C1CC(CCCl)(c2ccccc2)OC1=O (stereo not given)				> 63.1 µM		> 100 µM		38.6 µM		> 100 µM		71.8 µM		> 100 µM		71.5 µM		47.7 µM		> 62.7 µM
CO[C@@H]1[C@@H](OC2OC(C)C(OC3CC(C)(O)C(OC(=O)CC(C)C)C(C)O3)C(N(C)C)C2O)[C@@H](CC=O)C[C@@H](C)C(=O)/C=C/C2O[C@H]2C[C@@H](C)OC(=O)C[C@H]1OC(C)=O (stereo not given in full)				> 100 µM		61 µM		30 µM		33.5 µM		40.5 µM		86.7 µM		47.4 µM		64.7 µM		46.2 µM
